Type in all cases: functional, cell-based
Assay [1] in a line: Antiproliferative activity was evaluated against human prostate TSU cancer cell lines using the sulforhodamine B ([…]) assay.
The next assay deals with PC-3. Nature of the assay: Antiproliferative activity was evaluated against human prostate PC-3 cancer cell lines using the sulforhodamine B ([…]) assay.
The test system of the next assay is LNCaP. As to the kind of experiment: Antiproliferative activity was evaluated against human prostate LNCaP cancer cell lines using the sulforhodamine B ([…]) assay.
Assay [2] in a line: Antiproliferative activity was evaluated against human prostate PPC-1 cancer cell lines using the sulforhodamine B ([…]) assay.
A further assay has as its system DU-145. As to the kind of experiment: Antiproliferative activity was evaluated against human prostate DU-145 cancer cell lines using the sulforhodamine B ([…]) assay.

Structures are written as SMILES. pIC50: −log10 of the molar value. A value given as a limit tells only on which side of the number the result lay.

This note sets out measurements from ChEMBL document CHEMBL1137918, “Synthesis and antiproliferative activity of 2-aryl-4-oxo-thiazolidin-3-yl-amides for prostate cancer” (Bioorg Med Chem Lett, 2004).

In general, pIC50 refers to the IC50 on a negative log10 scale, so that one unit is a factor of ten. A high value points to a low IC50. In the case of `COc1ccc(CCNC(=O)CN2C(=O)CSC2c2ccccc2)cc1OC` (centres undefined), the pIC50 (in assay [1]; with PC-3; in the assay with LNCaP; in assay [2]) was < 4.00 each time.

Regarding `CCCCCCCCCCCCCCCCCCNCCN1CCSC1c1ccccc1` (centres undefined), the pIC50 was 5.21 in assay [1]; < 4.70 with PC-3; < 4.70 in the assay on LNCaP; 4.92 in assay [2]; 4.80 in the assay with DU-145.
